Assay results from ChEMBL document CHEMBL5252513, “Identification of a Benzoisoxazoloazepine Inhibitor (CPI-0610) of the Bromodomain and Extra-Terminal (BET) Family as a Candidate for Human Clinical Trials” (J Med Chem, 2016).
pIC50: −log10 of the molar value.

What was measured:
[1] = Protein binding in rat plasma; format: ADME, cell-free; settings: read-out: PPB (converted)
[2] = Unbound AUC in rat at 5 mg/kg,po; format: ADME, organism-based; settings: in vivo
[3] = Tmax in mouse at 10 mg/kg,sc; format: ADME, organism-based; settings: in vivo
[4] = target: T1, Transcription intermediary factor 1-alpha (Homo sapiens, UniProt O15164); experiment: Binding affinity to TRIM24 bromodomain (unknown origin) incubated for 60 mins by TR-FRET assay
T1 sequence (O15164 whole entry): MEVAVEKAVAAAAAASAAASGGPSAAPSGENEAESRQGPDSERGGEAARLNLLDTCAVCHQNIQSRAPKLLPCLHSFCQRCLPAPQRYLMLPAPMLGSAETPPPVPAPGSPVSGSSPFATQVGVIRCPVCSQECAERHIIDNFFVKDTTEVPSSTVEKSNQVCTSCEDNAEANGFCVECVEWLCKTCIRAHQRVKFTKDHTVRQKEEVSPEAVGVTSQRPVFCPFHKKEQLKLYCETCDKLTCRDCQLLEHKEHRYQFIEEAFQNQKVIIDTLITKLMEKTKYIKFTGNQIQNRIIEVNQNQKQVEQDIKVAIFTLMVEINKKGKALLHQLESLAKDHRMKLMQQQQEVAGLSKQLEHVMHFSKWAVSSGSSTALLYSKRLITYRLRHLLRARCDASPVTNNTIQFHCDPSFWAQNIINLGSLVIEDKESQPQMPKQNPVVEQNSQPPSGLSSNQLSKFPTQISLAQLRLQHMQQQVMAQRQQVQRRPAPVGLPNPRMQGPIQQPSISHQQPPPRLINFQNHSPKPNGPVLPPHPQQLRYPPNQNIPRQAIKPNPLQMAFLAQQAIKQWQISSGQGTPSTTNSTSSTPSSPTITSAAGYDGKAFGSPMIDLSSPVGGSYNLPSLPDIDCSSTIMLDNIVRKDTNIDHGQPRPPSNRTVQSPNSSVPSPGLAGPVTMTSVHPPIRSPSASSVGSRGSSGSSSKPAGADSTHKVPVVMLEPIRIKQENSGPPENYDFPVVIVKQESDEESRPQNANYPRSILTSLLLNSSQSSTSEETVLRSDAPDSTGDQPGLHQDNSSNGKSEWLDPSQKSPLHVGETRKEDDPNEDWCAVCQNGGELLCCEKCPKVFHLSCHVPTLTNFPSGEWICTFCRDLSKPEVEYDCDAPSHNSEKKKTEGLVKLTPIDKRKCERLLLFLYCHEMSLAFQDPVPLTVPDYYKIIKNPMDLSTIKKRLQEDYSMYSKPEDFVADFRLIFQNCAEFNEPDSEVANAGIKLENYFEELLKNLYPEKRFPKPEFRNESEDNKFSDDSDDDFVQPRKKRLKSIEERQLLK

[5] = Unbound clearance in rat at 1 mg/kg,iv; format: ADME, organism-based; settings: in vivo
[6] = Unbound AUC in mouse at 30 mg/kg,po; format: ADME, organism-based; settings: in vivo
[7] = target: Histone acetyltransferase KAT2B (Homo sapiens, UniProt Q92831); experiment: Binding affinity to PCAF bromodomain (unknown origin) incubated for 60 mins by TR-FRET assay
[8] = Intrinsic clearance in dog liver microsomes; format: ADME, Canis lupus familiaris, Microsome; settings: read-out: CLH
[9] = Initial unbound plasma concentration in human patient with progression lymphoma at 300 mg,po QD and measured after 24 hrs; format: ADME; settings: in vivo
[10] = Oral bioavailability in dog at 2.5 mg/kg; format: ADME, organism-based, Canis lupus familiaris; settings: in vivo
CREB-binding protein = CREB-binding protein (Homo sapiens, UniProt Q92793); experiment: Displacement of biotinylated JQ1 from CBP bromodomain (unknown origin) incubated for 20 mins by AlphaLISA assay
[11] = Volume of distribution at steady state in rat at 1 mg/kg,iv; format: ADME, organism-based; settings: in vivo, read-out: Vdss
[12] = target: T2, Bromodomain-containing protein 9 (Homo sapiens, UniProt Q9H8M2); experiment: Binding affinity to BRD9 bromodomain (unknown origin) incubated for 60 mins by TR-FRET assay
T2 sequence (Q9H8M2 whole entry): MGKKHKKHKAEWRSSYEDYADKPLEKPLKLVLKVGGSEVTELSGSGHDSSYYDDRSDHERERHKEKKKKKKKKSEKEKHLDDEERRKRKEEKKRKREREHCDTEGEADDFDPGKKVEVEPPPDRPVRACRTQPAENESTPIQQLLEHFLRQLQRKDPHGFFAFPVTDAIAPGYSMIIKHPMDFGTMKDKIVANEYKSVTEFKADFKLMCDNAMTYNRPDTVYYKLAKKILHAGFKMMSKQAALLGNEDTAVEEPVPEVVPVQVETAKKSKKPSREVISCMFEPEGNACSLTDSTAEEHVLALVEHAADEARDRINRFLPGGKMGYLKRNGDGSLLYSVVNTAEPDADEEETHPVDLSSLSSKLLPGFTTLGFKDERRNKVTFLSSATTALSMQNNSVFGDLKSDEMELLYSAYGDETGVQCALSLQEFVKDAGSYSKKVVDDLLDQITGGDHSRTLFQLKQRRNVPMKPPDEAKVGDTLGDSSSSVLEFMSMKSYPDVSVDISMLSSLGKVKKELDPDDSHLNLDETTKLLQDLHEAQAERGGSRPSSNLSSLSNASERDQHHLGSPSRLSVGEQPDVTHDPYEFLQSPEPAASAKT

Sequence of CREB-binding protein (Q92793 whole entry): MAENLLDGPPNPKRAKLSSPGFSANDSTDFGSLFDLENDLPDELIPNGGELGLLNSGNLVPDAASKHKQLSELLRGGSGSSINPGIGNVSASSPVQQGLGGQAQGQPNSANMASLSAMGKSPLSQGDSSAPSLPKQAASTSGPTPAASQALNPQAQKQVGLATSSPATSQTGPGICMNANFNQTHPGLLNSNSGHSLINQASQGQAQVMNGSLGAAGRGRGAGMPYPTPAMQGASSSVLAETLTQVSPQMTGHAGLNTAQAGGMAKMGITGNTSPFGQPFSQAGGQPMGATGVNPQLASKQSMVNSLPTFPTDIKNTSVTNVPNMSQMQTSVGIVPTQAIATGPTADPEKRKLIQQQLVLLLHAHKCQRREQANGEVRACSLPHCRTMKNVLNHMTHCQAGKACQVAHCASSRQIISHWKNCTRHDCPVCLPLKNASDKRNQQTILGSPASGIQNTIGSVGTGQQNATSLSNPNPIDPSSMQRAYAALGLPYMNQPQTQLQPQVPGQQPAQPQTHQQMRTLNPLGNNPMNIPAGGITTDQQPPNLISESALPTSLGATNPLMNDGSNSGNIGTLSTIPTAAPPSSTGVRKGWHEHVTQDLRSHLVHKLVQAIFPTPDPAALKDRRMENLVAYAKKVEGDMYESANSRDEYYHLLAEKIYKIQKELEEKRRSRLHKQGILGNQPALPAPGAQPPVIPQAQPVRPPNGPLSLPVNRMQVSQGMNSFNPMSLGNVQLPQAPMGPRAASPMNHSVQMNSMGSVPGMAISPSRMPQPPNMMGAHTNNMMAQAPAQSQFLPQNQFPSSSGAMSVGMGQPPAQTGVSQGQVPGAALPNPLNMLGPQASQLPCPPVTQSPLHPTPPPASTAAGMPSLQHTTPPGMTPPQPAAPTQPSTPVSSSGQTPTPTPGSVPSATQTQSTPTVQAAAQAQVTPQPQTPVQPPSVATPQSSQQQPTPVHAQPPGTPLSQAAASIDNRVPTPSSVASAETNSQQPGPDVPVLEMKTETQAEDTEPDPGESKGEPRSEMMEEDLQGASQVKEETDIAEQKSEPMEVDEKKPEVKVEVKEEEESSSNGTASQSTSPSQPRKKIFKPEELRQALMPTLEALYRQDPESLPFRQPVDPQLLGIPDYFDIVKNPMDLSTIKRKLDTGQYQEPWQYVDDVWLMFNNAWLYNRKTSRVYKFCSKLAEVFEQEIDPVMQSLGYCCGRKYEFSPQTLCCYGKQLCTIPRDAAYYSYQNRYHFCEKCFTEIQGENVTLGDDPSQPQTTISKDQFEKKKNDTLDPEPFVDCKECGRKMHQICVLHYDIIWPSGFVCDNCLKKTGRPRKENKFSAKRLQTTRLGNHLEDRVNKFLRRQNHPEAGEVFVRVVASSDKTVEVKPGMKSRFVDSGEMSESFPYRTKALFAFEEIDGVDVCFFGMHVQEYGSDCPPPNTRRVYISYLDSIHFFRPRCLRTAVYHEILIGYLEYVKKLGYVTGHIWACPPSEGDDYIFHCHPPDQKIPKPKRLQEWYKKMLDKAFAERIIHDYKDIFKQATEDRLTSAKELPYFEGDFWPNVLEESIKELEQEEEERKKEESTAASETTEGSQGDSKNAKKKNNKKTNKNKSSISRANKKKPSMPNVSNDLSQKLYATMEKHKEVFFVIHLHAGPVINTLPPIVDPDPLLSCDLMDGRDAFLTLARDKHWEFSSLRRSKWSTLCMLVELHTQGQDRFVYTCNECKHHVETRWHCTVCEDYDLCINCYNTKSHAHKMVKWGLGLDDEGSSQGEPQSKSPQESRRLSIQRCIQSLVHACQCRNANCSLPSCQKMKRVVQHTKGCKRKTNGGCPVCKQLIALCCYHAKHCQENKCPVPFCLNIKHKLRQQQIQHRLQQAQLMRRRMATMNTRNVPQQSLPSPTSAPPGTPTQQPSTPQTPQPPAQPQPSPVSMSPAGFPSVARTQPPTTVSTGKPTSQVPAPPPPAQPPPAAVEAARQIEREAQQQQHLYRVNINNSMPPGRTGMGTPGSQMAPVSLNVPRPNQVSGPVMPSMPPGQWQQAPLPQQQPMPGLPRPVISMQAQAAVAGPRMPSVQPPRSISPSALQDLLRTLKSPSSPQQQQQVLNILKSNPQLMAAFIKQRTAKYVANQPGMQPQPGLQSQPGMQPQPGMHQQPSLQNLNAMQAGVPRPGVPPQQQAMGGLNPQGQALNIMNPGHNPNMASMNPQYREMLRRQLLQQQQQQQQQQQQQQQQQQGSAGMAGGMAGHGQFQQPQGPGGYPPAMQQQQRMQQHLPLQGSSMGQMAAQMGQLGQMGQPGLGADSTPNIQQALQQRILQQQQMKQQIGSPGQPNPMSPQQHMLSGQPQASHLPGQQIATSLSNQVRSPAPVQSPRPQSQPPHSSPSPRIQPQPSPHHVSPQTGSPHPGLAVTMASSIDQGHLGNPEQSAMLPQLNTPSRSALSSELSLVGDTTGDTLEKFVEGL
Sequence of Histone acetyltransferase KAT2B (Q92831 whole entry): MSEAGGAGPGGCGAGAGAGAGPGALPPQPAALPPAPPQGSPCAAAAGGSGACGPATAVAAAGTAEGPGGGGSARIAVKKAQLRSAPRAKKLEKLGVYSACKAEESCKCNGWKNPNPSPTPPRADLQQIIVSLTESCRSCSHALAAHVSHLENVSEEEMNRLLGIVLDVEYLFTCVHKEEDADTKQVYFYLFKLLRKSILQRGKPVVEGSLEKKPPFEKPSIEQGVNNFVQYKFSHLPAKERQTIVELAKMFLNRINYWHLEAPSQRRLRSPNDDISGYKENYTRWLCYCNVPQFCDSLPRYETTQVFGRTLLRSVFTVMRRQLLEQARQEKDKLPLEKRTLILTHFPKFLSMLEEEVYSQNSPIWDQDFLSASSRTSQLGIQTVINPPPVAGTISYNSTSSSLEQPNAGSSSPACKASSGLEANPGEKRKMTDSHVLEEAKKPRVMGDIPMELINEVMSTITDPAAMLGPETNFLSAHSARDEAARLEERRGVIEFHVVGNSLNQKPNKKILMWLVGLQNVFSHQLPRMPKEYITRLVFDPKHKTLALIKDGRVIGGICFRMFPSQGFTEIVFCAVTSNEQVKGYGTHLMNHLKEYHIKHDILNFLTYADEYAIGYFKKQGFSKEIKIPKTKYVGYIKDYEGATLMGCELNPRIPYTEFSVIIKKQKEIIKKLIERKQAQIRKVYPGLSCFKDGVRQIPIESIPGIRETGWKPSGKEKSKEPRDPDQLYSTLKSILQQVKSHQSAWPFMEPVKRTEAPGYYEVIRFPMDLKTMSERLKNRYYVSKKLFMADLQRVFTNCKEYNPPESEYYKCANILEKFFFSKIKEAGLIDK

A fraction unbound [1] of 0.07, a fAUC [2] of 0.64 µM·h and a Tmax [3] of 1.3 h were found for `Cc1noc2c1-c1ccccc1C(c1ccc(Cl)cc1)=N[C@H]2CC(N)=O` [PELABRESIB] in this work. The pIC50 [4] was under 4.70, the CL free [5] was 283 mL/min/kg and the fAUC [6] was 3 µM·h. For the same molecule, the pIC50 [7] was under 4.70, the predicted hepatic clearance [8] was 20 mL/min/kg and the “C0(unbound)” value [9] was 11 nM. For the same molecule, the bioavailability [10] was 45%, the pIC50 (CREB-binding protein) was under 4.70 and the Vd [11] was 1.3 L/kg. The pIC50 [12] was under 4.10.
